From patent US11634466B2, “Musclin peptides and methods of use thereof” (UNIVERSITY OF IOWA RESEARCH FOUNDATION, priority 2016, dated 2023) come the findings set out here.

One data set deals with WT and Ostn-KO mice. Briefly: Voluntary exercise performance on running wheels during musclin infusion. It is filed as in vivo. The procedure: (§1) Whole body composition was obtained by time-domain nuclear magnetic resonance under isoflurane anesthesia (Bruker Minispec; Billerica, Mass.). Osmotic pumps: Osmotic pumps (model 1004, 100 μl volume, 0.11 μl/hr release rate, 28 days duration, Alzet Durect, Cupertino, Calif.), loaded with saline vs. 50 μg of mouse musclin peptide (SFSGFGSPLDRLSAG SVEHRGKQRKAVDHSKKR (SEQ ID NO: 4), corresponding to amino acids 80-112, Gen Bank ID: AAS87598.1, synthesized by Biosynthesis, Lewisville, Tex.) were surgically implanted within the peritoneal cavity of mice under sterile conditions and general anesthesia. Mice recovered for 7 days before exercise testing was performed.
Mice were housed in individual cages with free access to attached running wheels (Columbus Instruments, Columbus, Ohio). Running distance was calculated as 1/6πD·ΣRMPi, where D is wheel diameter and ΣRMPi is sum of averaged RPM values.

Data set [1] in a line: Plasma musclin level by custom ELISA after osmotic pump infusion of musclin. Type of data set: in vivo. Conditions: WT mice, musclin 1 ng/g/h i.p. by osmotic pump for 7 d. The procedure: as §1
Terminal blood collection was performed by direct cardiac puncture.
96-well ELISA Maxisorp plates (Nunc) were coated with custom rabbit anti-musclin IgG (Anaspec) at 1 μg/well in BupH carbonate-bicarbonate buffer, pH 9.4 (Thermo Scientific) at 4° C. overnight. On the next day plates were washed with TBS/0.05% Tween 20 and blocked with 5% BSA/TBS for 1 hr at room temperature. Synthetic musclin peptide was used as a standard (NH2-sfsgfgspldrlsagsvehrgkqrkavdhskkr-COOH (SEQ ID NO: 28), corresponding to amino acids 80-112, Gen Bank ID: AAS87598.1, synthesized by Biosynthesis, Lewisville, Tex.). […] Fluorescence was detected at 325/420 nm.

Data set [2] concerns cGMP production in murine primary myoblasts. Briefly: cGMP production in skeletal myoblast culture exposed to ANP and musclin. It is filed as cell-based. The settings on record: n=3. On the procedure:
Cyclic GMP levels were measured using cyclicGMP EIA kit (Cayman Chemical Company, Ann Arbor, Mich.). Mice were exercised for 5 days, 12 m/min, 45 min before tissue collection. At the day of the experiment mice were exercised 12 m/min, 20 min, sedated with isoflurane and gastrocnemius muscle tissue was collected. Cyclic nucleotides were extracted using 5% trichloracetic acid. Samples were acetylated and used for cGMP level measurements according to the manufacturer's protocol.
Mouse primary myoblasts were isolated from gastrocnemius muscle of 4-6 weeks old mice. Fresh muscle tissue was digested with 2 mg/ml collagenase II in DMEM-F12 for 1.5 h at 37° C.; then 30 min at 37° C. with 1 mg/ml collagenase II and 0.5 mg/ml dispase in DMEM-F12. Tissue was ground and passed through a 100 μm then 70 μm cell strainer and spun at 1000 rpm for 10 min. Myoblasts were resuspended in DMEM-F12 supplemented with 20% FBS, 40 ng/ml bFGF, non-essential amino acids, 1 mM β-mercaptoethanol. Cells were plated on matrigel coated dishes. Cells were maintained in DMEM-F12 supplemented with 20% FBS, 10 ng/ml bFGF, non-essential amino acids, 1 mM β-mercaptoethanol until 80% confluent. Then they were differentiated in DMEM-F12 supplemented with 2% FBS and insulin-transferrin-selenium for 10 days. Human skeletal myoblast primary culture (lot #SLSK002, Zenbio, Research Triangle Park, NC) was maintained according to the supplier's manual.

The subject of data set [3] is mTORC1 targets (4EBP1, P70S6K). Briefly: Western blot of mTOR targets in skeletal muscle after musclin infusion. It is filed as in vivo. Conditions: WT mice. On the procedure:
Western blotting: Whole cell protein extracts were prepared by homogenizing skeletal muscle tissue in NaCl 150 mM, Tris-HCl 50 mM (pH 7.8), supplemented with 1.5% Triton X-100, protease and phosphatase inhibitors (Roche). Nuclear extracts were obtained using the Subcellular Protein Fractionation Kit for Tissues (Thermo Scientific).
Electrophoresis was performed on 3-8% gradient Nu-Page Tris-Acetate or 10% Nu-Page Bis-Tris gels and transferred to 0.2 μm Sequi-Blot PVDF membranes (Bio-Rad). The membranes were blotted with total AKT1 and phospho-AKT1([…], T308, Cell Signaling), FOXO1 (Cell Signaling), total OXPHOS (rodent, Abcam), musclin (custom rabbit IgG produced against partial mouse musclin sequence NH2-sfsgfgspldrlsagsvehrgkqrkavdhskkr-COOH (SEQ ID NO: 4), corresponding to amino acids 80-112, Gen Bank ID: AAS87598.1, Anaspec, Fremont, Calif.), and GAPDH (Santa Cruz Biotechnologies) antibodies. Densitometric analysis of western blots was performed using Adobe Photoshop (Adobe Systems, San Jose, Calif.).
These findings are paralleled by more pure glycolytic fibers and greater fatigability in tibialis anterior (TA) muscles of exercise-trained Ostn-KO vs. WT mice (FIGS. 13A-13C). […] GSK3β phosphorylation is associated with increased autophosphorylation of mTOR at S2481 (FIGS. 14A-14B). Furthermore, consistent with the known activating effect of GSK3β inhibition on mTORC1, we find increased phosphorylation of the mTOR targets 4EBP1, P70S6K and ULK1 in skeletal muscles of trained WT vs. Ostn-KO mice 1 h after last exercise (FIGS. 15A-15B). […] We also find that skeletal muscle autophagy flux 1 h after last exercise is increased in exercise-trained Ostn-KO vs. WT, as reflected in higher LC3A II/I ratio and lower expression of P62 on western blots (FIGS. 16A-16G).
In general terms: In western blotting, separated proteins are transferred to a membrane and probed.

The mark [4] stands for this setting: Ostn-KO mice treated with musclin by osmotic pump, night, n=4.
Where [5] appears, read: WT mice treated with musclin by osmotic pump, night, n=5.
Where [6] appears, read: musclin 1 ng/g/h i.p. by osmotic pump for 7 d, skeletal muscle western blot, n=3.

As for “H-SFSGFGSPLDRLSAGSVEHRGKQRKAVDHSKKR-OH [musclin]”, the “night-time mean velocity, voluntary running wheel” value in the data set with WT and Ostn-KO mice (Ostn-KO mice treated with musclin by osmotic pump, n=4) amounted to 53±15 rotations/5 min. For the same substance, in the data set with WT and Ostn-KO mice (setting [4]), the “distance run, voluntary running wheel” value worked out at 2290±632 meters and the “duration of running, voluntary running wheel” value is 333 ± 53 min. For the same substance, in the data set on WT and Ostn-KO mice (setting [5]), the “distance, voluntary running wheel” value is listed as 2202±280 meters; the “duration, voluntary running wheel” value came to 336 ± 39 min; the “mean velocity, voluntary running wheel” value was 51±7 rotations/5 min. The “plasma level induced by musclin infusion” value in data set [1] is recorded as “comparable with that observed after exercise training”. The substance also came in with a cGMP production in data set [2] (1 μM musclin without ANP) of 0.104±0.006 fmol/μg protein. Also, in data set [2] (5 μM musclin without ANP), the cGMP production is listed as 0.117±0.003 fmol/μg protein. Also, in data set [3] (setting [6]), the 4EBP1/GAPDH is reported as 1.78±0.05, the P70S6K/GAPDH worked out at 1.73±0.03, the “p-4EBP1/total 4EBP1” value is on record as 0.59±0.07 and the “p-P70S6K/total P70S6K” value is listed as 0.32±0.06. Besides, in data set [3] (musclin 1 ng/g/h i.p. for 7 d vs. saline-treated mice), the “phosphorylation of mTORC1 targets” value is listed as “greater phosphorylation”.
